Reference: US20230026616A1, “PYRIMIDOIMIDAZOLE COMPOUNDS USED AS DNA-PK INHIBITORS” (MEDSHINE DISCOVERY INC., priority 2019, published 2023)
Read-outs that look alike come from different tables or passages of the source. Each block holds one compound with its values, some of them ahead of it.

What was measured:
Human DNA-PK = molecular target: T1, Human DNA-PK (Homo sapiens, UniProt P78527); experiment: DNA-dependent protein kinase (DNA-PK) inhibitory activity screening (Eurofins, HTRF); type: biochemical; details: ATP: 10 μM; read-out: DNA-PK kinase inhibition IC50
T1 construct: purchased Eurofins (Eurofins Pharma Discovery Service)
Procedure: Experimental Embodiment 1: DNA-Dependent Protein Kinase (DNA-PK) Inhibitory Activity Screening Experiment
This experiment was tested in the Eurofins
Human DNA-PK; Mg/ATP; GST-cMyc-p53; EDTA; Ser15 antibody; ATP: 10 μM.
Experimental Method (Eurofins Pharma Discovery Service):
DNA-PK (h) was incubated in assay buffer containing 50 nM GST-cMyc-p53 and Mg/ATP (according to the required concentration). The reaction was initiated by adding Mg/ATP mixture. After 30 minutes of incubation at room temperature, the reaction was stopped by adding a stop solution containing EDTA. Finally, detection buffer (containing labeled anti-GST monoclonal antibody and europium-labeled anti-Ser15 antibody against phosphorylated p53) was added. The plate was then read in time-resolved fluorescence mode, and the homogeneous time-resolved fluorescence (HTRF) signal was determined according to the formula HTRF=10000×(Em665 nm/Em620 nm).

[1] = Pharmacokinetic evaluation (1): cassette PK in Balb/c male mice, plasma; type: in vivo; details: for AUC(0-t) / C0 / clearance / half-life / Vd / Cmax / Tmax / Tlast / AUC0-last / T1/2: mouse plasma; for Vd: read-out: Vdss; for F: mouse, PO 2 mg/kg vs IV 0.4 mg/kg
Procedure: Test compounds were mixed with 10% dimethyl sulfoxide/50% polyethylene glycol 200/40% water (compounds 1, 4, 10, 17) or 20% N,N-dimethylacetamide/80% water (compound 5), vortexed and sonicated to prepare a nearly clear solution of 0.08 mg/mL (compounds 1, 4, 10, 17) or 0.50 mg/mL (compound 5), then filtered through a microporous membrane for next step. Balb/c male mice of 18 to 20 grams were selected and administered intravenously with the candidate compound solution at a dose of 0.4 (compounds 1, 4, 10, 17) or 1 mg/kg (compound 5). Test compounds were mixed with 10% dimethyl sulfoxide/50% polyethylene glycol 200/40% water (compounds 1, 4, 10, 17) or 20%-hydroxypropyl-β-cyclodextrin (compound 5), vortexed and sonicated to prepare a nearly clear solution of 0.2 mg/mL (compounds 1, 4, 10, 17) or 1 mg/mL (compound 5), then filtered through a microporous membrane for next step. Balb/c male mice of 18 to 20 grams were selected and orally administered with the candidate compound solution at a dose of 2 (compounds 1, 4, 10, 17) or 5 mg/kg (compound 5). Whole blood was collected for a certain period of time, and plasma was prepared, then drug concentration was detected by LC-MS/MS method, and pharmacokinetic parameters were calculated by Phoenix WinNonlin software (Pharsight, USA).
IV: intravenous injection; PO: oral; C0: instantaneous […] concentration after intravenous injection; Cmax: highest plasma concentration after administration; Tmax: time required to reach peak of drug concentration after administration; T1/2: time required for the plasma drug concentration to decrease by half, Vdss: apparent volume of distribution, refers to the proportional constant of the drug dose in vivo and the blood drug concentration when the drug reaches a dynamic equilibrium in vivo. Cl: clearance rate, refers to the […] cleared from the body per unit time; Tlast: time at the last detection point; AUC0-last: area under the drug-time curve, refers to the area covered by the plasma concentration curve and the time axis; F: a measure of the speed and degree of drug absorption into the blood circulation, which is an important indicator for evaluating the degree of drug absorption.

[2] = male, Balb/c, PO 2 mg/kg, read-out: Tmax

Structure (SMILES): Cc1cc2ncnn2cc1Nc1ncc2c(n1)n(N1CCOC3(CC3)C1)c(=O)n2C [Compound 10]
- IC50 (Human DNA-PK): 2.5 nM
- AUC(0-t) ([1]; male, Balb/c, IV 0.4 mg/kg): 0.64 µM·h
- C0 ([1]; male, Balb/c, IV 0.4 mg/kg): 1120 nM
- clearance ([1]; male, Balb/c, IV 0.4 mg/kg): 25.4 mL/min/kg
- half-life ([1]; male, Balb/c, IV 0.4 mg/kg): 35.5 min
- Vd ([1]; male, Balb/c, IV 0.4 mg/kg): 0.883 L/kg
- AUC(0-t) ([1]; male, Balb/c, PO 2 mg/kg): 3.83 µM·h
- Cmax ([1]; male, Balb/c, PO 2 mg/kg): 2060 nM
- half-life ([1]; male, Balb/c, PO 2 mg/kg): 73.2 min
- Tmax [1, 2]: 30 min
- Tlast ([1]; IV 0.4 mg/kg): 4 h
- Tlast ([1]; PO 2 mg/kg): 8 h
- F [1]: 120%

Structure (SMILES): Cc1cc2ncnn2cc1Nc1ncc2c(n1)n(N1CCC(C#N)CC1)c(=O)n2C [Compound 14]
- IC50 (Human DNA-PK): 5 nM

Structure (SMILES): Cc1cc2ncnn2cc1Nc1ncc2c(n1)n(N1CCC(F)(F)CC1)c(=O)n2C [Compound 7]
- IC50 (Human DNA-PK): 2 nM

Structure (SMILES): Cc1cc2ncnn2cc1Nc1ncc2c(n1)n(N1CCC3(CC1)COC3)c(=O)n2C [Compound 11]
- IC50 (Human DNA-PK): 5 nM

Structure (SMILES): Cc1cc2ncnn2cc1Nc1ncc2c(n1)n(N1CC3CCCC3C1)c(=O)n2C (stereo not drawn) [Compound 15]
- IC50 (Human DNA-PK): 1 nM

Structure (SMILES): Cc1cc2nncn2cc1Nc1ncc2c(n1)n(N1C3CCC1COC3)c(=O)n2C [Compound 18]
- IC50 (Human DNA-PK): 0.9 nM

Structure (SMILES): Cc1cc2ncnn2cc1Nc1ncc2c(n1)n(N1C3CCC1COC3)c(=O)n2C [Compound 4]
- IC50 (Human DNA-PK): 1 nM
- AUC(0-t) ([1]; male, Balb/c, IV 0.4 mg/kg): 0.286 µM·h
- C0 ([1]; male, Balb/c, IV 0.4 mg/kg): 919 nM
- clearance ([1]; male, Balb/c, IV 0.4 mg/kg): 57 mL/min/kg
- half-life ([1]; male, Balb/c, IV 0.4 mg/kg): 14.4 min
- Vd ([1]; male, Balb/c, IV 0.4 mg/kg): 1.08 L/kg
- AUC(0-t) ([1]; male, Balb/c, PO 2 mg/kg): 1.74 µM·h
- Cmax ([1]; male, Balb/c, PO 2 mg/kg): 1600 nM
- half-life ([1]; male, Balb/c, PO 2 mg/kg): 36.5 min
- Tmax [1, 2]: 15 min
- Tlast ([1]; IV 0.4 mg/kg): 2 h
- Tlast ([1]; PO 2 mg/kg): 4 h
- F [1]: 123%

Structure (SMILES): Cc1cc2ncnn2cc1Nc1ncc2c(n1)n(N1CCOCC1)c(=O)n2C [Compound 1]
- IC50 (Human DNA-PK): 2 nM
- C0 ([1]; male, Balb/c, IV 0.4 mg/kg): 959 nM
- clearance ([1]; male, Balb/c, IV 0.4 mg/kg): 37.7 mL/min/kg
- Vd ([1]; male, Balb/c, IV 0.4 mg/kg): 1.51 L/kg
- AUC0-last ([1]; IV 0.4 mg/kg): 0.426 µM·h
- T1/2 ([1]; IV 0.4 mg/kg): 35.9 min
- Tlast ([1]; IV 0.4 mg/kg): 4 h
- AUC0-last ([1]; PO 2 mg/kg): 2.497 µM·h
- Cmax ([1]; PO 2 mg/kg): 1420 nM
- T1/2 ([1]; PO 2 mg/kg): 50.5 min
- Tlast ([1]; PO 2 mg/kg): 8 h
- Tmax ([1]; PO 2 mg/kg): 30 min
- F [1]: 96.4%

Structure (SMILES): Cc1cc2ncnn2cc1Nc1ncc2c(n1)n(N1CC3CC(C1)O3)c(=O)n2C [Compound 6]
- IC50 (Human DNA-PK): 1 nM

Structure (SMILES): Cc1cc2ncnn2cc1Nc1ncc2c(n1)n(N1CCC3(CCO3)CC1)c(=O)n2C [Compound 12]
- IC50 (Human DNA-PK): 4 nM

Structure (SMILES): Cc1cc2ncnn2cc1Nc1ncc2c(n1)n(N1CCOC3(CCC3)C1)c(=O)n2C [Compound 13]
- IC50 (Human DNA-PK): 2 nM

Structure (SMILES): Cc1cc2ncnn2cc1Nc1ncc2c(n1)n(N1CC3CC3C1)c(=O)n2C (stereo not drawn) [Compound 16]
- IC50 (Human DNA-PK): 0.5 nM

Next, values leading:

- IC50 (Human DNA-PK): 0.9 nM
Structure (SMILES): Cc1cc2nccn2cc1Nc1ncc2c(n1)n(N1C3CCC1COC3)c(=O)n2C [Compound 20]

- IC50 (Human DNA-PK): 10 nM
Structure (SMILES): Cc1nc2nccn2cc1Nc1ncc2c(n1)n(N1CC3CCC(C1)O3)c(=O)n2C [Compound 23]

- IC50 (Human DNA-PK): 0.6 nM
Structure (SMILES): Cc1cc2nccn2cc1Nc1ncc2c(n1)n(N1CC3CCC(C1)O3)c(=O)n2C [Compound 19]

- IC50 (Human DNA-PK): 0.4 nM
Structure (SMILES): Cc1cn2ncnc2cc1Nc1ncc2c(n1)n(N1C3CCC1COC3)c(=O)n2C [Compound 22]

- IC50 (Human DNA-PK): 68 nM
Structure (SMILES): Cc1nc2nccn2cc1Nc1ncc2c(n1)n(N1C3CCC1COC3)c(=O)n2C [Compound 24]

- IC50 (Human DNA-PK): 0.5 nM
Structure (SMILES): Cc1cn2ncnc2cc1Nc1ncc2c(n1)n(N1CC3CCC(C1)O3)c(=O)n2C [Compound 21]
